We go through 8 molecules from US9249116B2, “Enzyme-activating compounds and compositions” (The Board of Trustees of the University of Illinois, priority 2012, dated 2016).

A word on the IC50: it is the concentration that inhibits the measured activity by half.

Molecules are shown by their SMILES.

In one data set the target is T1, procaspase-3 (Homo sapiens, UniProt P42574).
T1 construct: 6xHis (C); made in house; host or cells: Rosetta E. coli
T1 sequence (P42574 1-277): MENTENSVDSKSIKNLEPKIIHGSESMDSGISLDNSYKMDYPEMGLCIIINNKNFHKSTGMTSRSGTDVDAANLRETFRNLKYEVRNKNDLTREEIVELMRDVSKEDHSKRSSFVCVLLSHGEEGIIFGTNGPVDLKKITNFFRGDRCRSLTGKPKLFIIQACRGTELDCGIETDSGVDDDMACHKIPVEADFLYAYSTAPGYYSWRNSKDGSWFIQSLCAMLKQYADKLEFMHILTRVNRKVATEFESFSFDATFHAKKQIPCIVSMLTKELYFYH
Briefly: Procaspase-3 activity assay (relief of zinc-mediated inhibition, Ac-DEVD-pNA cleavage). The data set is classed as biochemical. The settings on record: procaspase-3 incubated with […] ZnSO4; method gives compounds at 25 μM. How it is done: The six confirmed hits were then evaluated in vitro for their ability to relieve zinc-mediated inhibition of procaspase-3 (Table A). In this experiment, procaspase-3 was incubated with ZnSO4, conditions in which procaspase-3 has no enzymatic activity.
Techniques adapted from Hergenrother and coworkers (Putt et al., Nat Chem Biol 2006, 2, 543-550). A 20 mL volume of an overnight culture of Rosetta E. coli containing the procaspase-3 (wild-type) expression plasmid was seeded into 2 L of LB media containing ampicillin. The culture was grown to an OD600=1.0, at which point protein expression was induced via addition of IPTG (to 1 mM); the culture was allowed to grow for 30 additional minutes. Cells were then harvested (10 minute spins at 10,000×g and re-suspended in NTA binding buffer (300 mM NaCl, 50 mM Tris, 10 mM imidazole, pH 8.0). The cells were lysed on ice via sonication. The cell lysate was then spun at 35,000×g for […] The supernatant was decanted and 1 mL of nickel-NTA resin was added. The cell lysate was incubated for 45 minutes at 4° C. The resin was loaded on a column, washed with 10 mL NTA binding buffer followed by 10 mL NTA wash buffer (300 mM NaCl, 50 mM Tris, 50 mM imidazole, pH 8.0). The proteins were eluted in 0.5 mL fractions with 10 mL of NTA elution buffer (300 mM NaCl, 50 mM Tris, 500 mM imidazole, pH 8.0). Fractions containing protein were pooled and further purified to remove any contaminating zinc by applying the protein to a PD-10 column (GE Healthcare) charged with Caspase Activity Buffer that had been treated with Chelex® resin. The resulting concentration was determined using the Edelhoch method and the molar absorptivity of procaspase-3 of 26150 M^−1 cm^−1. Protein stocks were flash-frozen in liquid nitrogen and stored at −80° C.
In a 384-well plate recombinantly expressed, zinc-free procaspase-3 (wild type, at 1 μM) in Caspase Activity Buffer (50 mM HEPES, 300 mM NaCl, 1.5 mM TCEP, 0.01% TritonX-100) was incubated at 37° C. in the presence of 3.5 μM ZnSO4 and the basal activity was assessed via the addition of Ac-DEVD-pNA (final concentration in well of 200 μM). The absorbance at 405 nm was monitored with a SpectraMax plate reader (Molecular Devices). […] Activity of each treatment was assessed at 5, 20, 40 and 60 minutes via 5-minute kinetic reads. The slope of each data set was used to determine the activity of the protein. Activity was normalized to a percent activity at each time point using a zinc-free sample and a zinc-inhibited sample treated with DMSO.

For data set [1], the system named is U-937 cells (human lymphoma). In words: 72 Hour IC50 cell death assay (sulforhodamine B). The data set is classed as cell-based. The settings on record: U-937, 72 h, read-out: U-937 72 h IC50 (μM). The protocol: After the synthesis was complete, the biological activity of the compounds was evaluated.
U-937 human lymphoma cells were plated into the wells of 96 well plate at a density of 15,000 cells per well in 99 μL of RPMI 1640 growth media with 10% FBS and 1% pen-strep. To each well was added 1 μL of compound stock solutions in DMSO at varying concentrations such that the cells were treated with concentrations between 0 μM and 100 μM compound. Each concentration was tested in quintuplicate per plate. In each plate 5 wells received 20 μM doxorubicin as a positive death control and 5 wells received 1 μL of DMSO as a negative control.
After the 72 hour incubation period, the plates were analyzed using a Sulforhodamine B assay (Vichai and Kirtikara, Nat Protoc 2006, 1, 1112-1116). Specifically, to each well of the plate 25 μL of a 50% (w/v) solution of trichloroacetic acid in H2O was added and the plates were incubated for 4 hours at 4° C. The plates were then washed gently with water five times. The plates were allowed to air dry after which 100 μL of a 0.057% (w/v) Sulforhodamine B in a 1% (v/v) acetic acid solution was added to each well for 30 minutes at room temperature. The plates were gently washed 5 times with 1% (v/v) acetic acid and air dried. 200 μL of 10 mM Tris base (pH 10.4) was added to each well and the plates were placed on an orbital shaker for thirty minutes. The level of SRB was quantified fluorometrically at excitation and emission wavelengths 488 and 585 nm, respectively, on a Molecular Devices plate reader and the percent cell death calculated and normalized to the positive control (100% cell death) and the negative control (0% cell death). The percent cell death was averaged for each compound concentration and plotted as a function of compound concentration. The data were fit to a logistical dose response curve using Table curve 2D and the IC50 value was calculated. The experiment was repeated three times and the average of the calculated IC50 values was reported. The standard error of the mean (SEM) was determined and reported for the triplicate experiments.

A short description of data set [2]: Liver microsome stability assay. The settings on record: rat liver microsomes, 10 μM, LC/MS. In kind it is in vitro ADME. The protocol: FIG. 4. Liver Microsome Stability Assay. Compounds (10 μM) incubated with liver microsomes for 3 h and quenched with MeCN containing internal standard, analyzed by LC/MS (280 nm). Next, the metabolic stability of the compounds was evaluated in rat liver microsomes. The compounds were evaluated for 3 hours at 10 μM, and the metabolites were observed by LC/MS.
In general terms: Liver microsomes are a subcellular fraction often used to study metabolism.

For another data set, the system named is mice. In words: Assessment of toxicity in vivo. The settings on record: mouse, in vivo. From the text:
The level of toxicity was rated on a scale of 0 (no observable adverse effect) to 3 (severe toxicity, almost fatal).

For `COc1ccc(CN2CCN(CC(=O)N/N=C/c3cc(C(C)(C)C)cc(C(C)(C)C)c3O)CC2)cc1` [3{2,7}], on procaspase-3, the “Procaspase-3 (% Activity at […])” value was 53 ± 4.1%.
On the same count and under the same terms, next, `COc1ccc(OC)c(CN2CCN(CC(=O)N/N=C/c3cc(C(C)(C)C)cc(C(C)(C)C)c3O)CC2)c1` [3{4,7}]: 64 ± 2.5%.
Same read-out and setting: in the case of `CC(C)(C)c1cc(/C=N/NC(=O)CN2CCN(Cc3ccc(OCc4ccccc4)cc3)CC2)c(O)c(C(C)(C)C)c1` [3{18,7}] it was 36 ± 1.6%.
`C=CCc1cccc(/C=N/NC(=O)CN2CCN(Cc3ccc(C(C)(C)C)cc3)CC2)c1O` [3{20,24}, N′-(3-allyl-2-hydroxybenzylidene)-2-(4-(4-(tert-butyl)benzyl)piperazin-1-yl)acetohydrazide]: the “Procaspase-3 (% Activity at […])” value on procaspase-3 is given as 82 ± 2.4%.
On to `CC(C)(C)c1cc(/C=N/NC(=O)CN2CCN(Cc3ccc4ccccc4c3)CC2)c(O)c(C(C)(C)C)c1` [3{25,7}], for which the “Procaspase-3 (% Activity at […])” value on procaspase-3 is 69 ± 5.3%.
On the same count and under the same terms, in the case of `CCc1ccc(CN2CCN(CC(=O)N/N=C/c3cc(C(C)(C)C)cc(C(C)(C)C)c3O)CC2)cc1` [3{28,7}] it was 60 ± 2.4%.
Consider `C=CCc1cccc(/C=N/NC(=O)CN2CCN(Cc3ccccc3)CC2)c1O` [PAC-1, Procaspase-Activating Compound 1, reference compound], for which the IC50 in data set [1] was 10.2 ± 0.3 µM. Also, on procaspase-3, the “Procaspase-3 (% Activity at […])” value is 42 ± 1.8%. In data set [2], the “RLM 3 h % Stability” value came to 38 ± 2%. In the data set on mice, the “Mouse Toxicity” value was determined as 3.
On to `C=CCc1cccc(/C=N/NC(=O)CN2CCN(Cc3ccc(S(N)(=O)=O)cc3)CC2)c1O` [S-PAC-1, reference compound], for which the “Procaspase-3 (% Activity at […])” value at procaspase-3 came to 4 ± 0.6%. Besides, the “RLM 3 h % Stability” value in data set [2] was “reasonably stable”; in data set [2] (listed as 2 (S-PAC-1)), 84 ± 0%.
